Measured values reported in patent publication US6362171B1, “Aminoaklanoyl-linked conjugates of 2′,5′-oligoadenylate and antiviral uses thereof” (priority 1997, dated 2002).
Where “and” joins values, the source holds several entries; their conditions need not be identical. Equal values may be shown once.

Legend:
[1] = biological target: T1, HIV-1 reverse transcriptase (HIV-1 RT) (Human immunodeficiency virus type 1 group M subtype B, UniProt P04585); experiment: Inhibition of HIV-1 reverse-transcriptase activity in culture supernatant of infected Sup T1 cells; format: cell-based; settings: for Inhibition of HIV-1 RT activity: 300 μM compound, Sup T1 cells treated 6 hours, supernatant at 96 hours post-infection, mean of duplicate
T1 construct: culture supernatant was removed and HIV-1 RT activity was assayed in triplicate; endogenous in cells; host or cells: Sup T1 cells infected with HIV-1; virion-associated enzyme in the culture supernatant

[2] = tested on: HIV-1 strain IIIB; experiment: Infected centers assay: inhibition of HIV-1 induced syncytia formation (HIV-1 replication); format: cell-based; settings: 300 μM compound; PBL treated 2 hours, infected with HIV-1 IIIB, co-cultured with Sup T1 cells, read at 72 hours; control 144 syncytia/10^4 cells; mean of triplicate
Method: The infected centers assay as described by Henderson et al., Virology 1991, 182, 186, was used to measure the ability of the conjugated trimer core compounds of the invention to inhibit HIV-1 induced syncytia formation, an indicator of HIV-1 replication in T cells. […] The infected PBL were maintained in RPMI-1640 medium supplemented with 10% (v/v) heat-inactivated fetal calf serum at 37° C. in a humidified 5% CO2 in air atmosphere. After 48 hours, the cells were washed twice in Hank's balanced salt solution, serially diluted and seeded into multiple wells of a 96-well microtiter plate. Immediately, 2×10^5 exponentially growing Sup T1 cells were added to each well; Sup T1 cells readily form a syncytium with a cell which is productively infected with HIV-1. The wells were examined daily for the presence of syncytia, using a tissue culture microscope. The first signs of syncytia formation can be seen in 12 hours, with some complete syncytia developing by 24 hours. Final results were read at 72 hours. Each syncytium was counted as a single infected cell. The number of syncytia per seeded cell was determined and expressed as an infected center per infected cell. The number of syncytia per […] was 144 for the control Sup T1 cells.

[3] = tested on: HIV-1; settings: literature ref [11]; cited from earlier work
[4] = biological target: recombinant human GST-RNase L (Homo sapiens, UniProt Q05823); settings: 10 μM compound; mean of duplicate
[5] = biological target: T2, RNase L (Homo sapiens, UniProt Q05823); settings: literature ref [10]; cited from earlier work
T2 sequence (Q05823 1-741): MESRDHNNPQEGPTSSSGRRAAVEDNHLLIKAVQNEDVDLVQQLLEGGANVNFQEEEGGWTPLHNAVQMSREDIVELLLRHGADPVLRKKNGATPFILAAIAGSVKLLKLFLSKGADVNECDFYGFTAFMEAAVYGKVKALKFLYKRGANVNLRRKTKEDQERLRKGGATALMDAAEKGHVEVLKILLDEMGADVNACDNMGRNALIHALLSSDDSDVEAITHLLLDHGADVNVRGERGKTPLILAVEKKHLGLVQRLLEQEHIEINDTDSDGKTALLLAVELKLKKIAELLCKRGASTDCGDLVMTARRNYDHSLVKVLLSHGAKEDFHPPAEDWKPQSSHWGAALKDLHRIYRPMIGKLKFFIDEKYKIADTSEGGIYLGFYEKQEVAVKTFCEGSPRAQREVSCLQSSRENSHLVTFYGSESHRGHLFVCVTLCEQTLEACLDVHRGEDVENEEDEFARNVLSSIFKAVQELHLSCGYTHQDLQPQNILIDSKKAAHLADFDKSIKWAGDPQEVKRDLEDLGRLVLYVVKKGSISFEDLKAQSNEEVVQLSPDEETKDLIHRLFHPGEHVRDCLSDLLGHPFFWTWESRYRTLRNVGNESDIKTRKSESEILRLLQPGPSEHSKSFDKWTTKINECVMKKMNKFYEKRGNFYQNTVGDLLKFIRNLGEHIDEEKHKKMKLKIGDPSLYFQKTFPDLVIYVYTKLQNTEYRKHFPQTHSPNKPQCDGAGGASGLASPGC

Row | Compound | Inhibition of HIV-1 RT activity [1] | Inhibition of syncytia formation (fold reduction in infection) [2] | HIV-1 production [3] | Activation of RNase L (percent hydrolysis of poly(U)-3′-[32P]pCp) [4] | Activation of RNase L [5] | inhibition at 300 µM ([1]; SUP-T1, read-out: Inhibition of HIV-1 RT activity)
1 | Nc1nc2ncc(CNc3ccc(C(=O)N[C@@H](CCC(=O)NCCCCCC(=O)O[C@@H]4C[C@@H](COP(=O)(O)O[C@@H]5C[C@@H](COP(=O)(O)O[C@@H]6C[C@@H](CO)O[C@H]6n6cnc7c(N)ncnc76)O[C@H]5n5cnc6c(N)ncnc65)O[C@H]4n4cnc5c(N)ncnc54)C(=O)O)cc3)nc2c(=O)[nH]1 [compound 26] | 45% | 2.4 fold | – | – | – | –
2 | (2′-5′)d^3′(A-A-A) [CCC] | 96% | 4.8 fold | inhibits HIV-1 production | 12% | no activation | –
3 | Nc1ncnc2c1ncn2[C@@H]1O[C@H](CO)C[C@H]1O [Cordycepin] | – | 1.5 fold | – | – | – | 13%
4 | Nc1nc2ncc(CNc3ccc(C(=O)N[C@@H](CCC(=O)NCCCCCC(=O)OC[C@H]4O[C@@H](n5cnc6c(N)ncnc65)[C@H](OP(=O)(O)OC[C@@H]5C[C@@H](OP(=O)(O)OC[C@@H]6C[C@@H](O)[C@H](n7cnc8c(N)ncnc87)O6)[C@H](n6cnc7c(N)ncnc76)O5)[C@@H]4O)C(=O)O)cc3)nc2c(=O)[nH]1 [compound 33] | 81% | 7.5 fold and 7.2 fold | – | 35% | – | –
